Data: the Deep4Chem optical property database
Blank lines part the entries; values can stand above or below the compound they belong to.

Assay: photoluminescence quantum yield (fraction); solvent given as SMILES

SMILES: COc1cc(OC)cc(C2=C3C(C)=C(I)C(/C=C/c4ccsc4)=[N+]3[B-](F)(F)n3c(/C=C/c4ccsc4)c(I)c(C)c32)c1
photoluminescence quantum yield (in C1CCOC1): 0.01
photoluminescence quantum yield (in CS(C)=O): 0.01
photoluminescence quantum yield (in ClCCl): 0.02

SMILES: CN(c1ccccc1)c1ccc(-c2ccc(-c3ccc(N(C)c4ccccc4)cc3)c3nc(-c4ccccc4)c(-c4ccccc4)nc23)cc1
photoluminescence quantum yield (in ClC(Cl)Cl): 0.01

SMILES: C1=C/C2=C(\c3ccccc3)c3c[nH]c(c3)/C(c3ccccc3)=C3/C=CC(=N3)/C(c3ccccc3)=c3/cc/c([nH]3)=C(\c3ccccc3)C1=N2
photoluminescence quantum yield (in CC(=O)N(C)C): 0.046

SMILES: CCCCCCCCCCCCN1C(=O)c2c(c3ccc4cc(-c5ccc(C)cc5)c(OC)cc4c3c3c2ccc2cc(-c4ccc(C)cc4)c(OC)cc23)C1=O
photoluminescence quantum yield (in ClCCl): 0.151

SMILES: C(=C\c1ccc(-n2c3ccccc3c3ccccc32)cc1)/c1ccc(-c2ccc(/C=C/c3ccc(-n4c5ccccc5c5ccccc54)cc3)cc2)cc1
photoluminescence quantum yield (in Cc1ccccc1): 0.89
photoluminescence quantum yield (in c1ccc2c(c1)c1ccccc1n2-c1ccc(-c2ccc(-n3c4ccccc4c4ccccc43)cc2)cc1): 0.98

SMILES: c1ccc2nc(-n3c4ccccc4c4ccccc43)c(-n3c4ccccc4c4ccccc43)nc2c1
photoluminescence quantum yield (in Cc1ccccc1): 0.13

SMILES: COC(=O)c1ccc(O)c(-c2[nH]c(=O)n3c2-c2ccccc2C3=O)c1
photoluminescence quantum yield (in CC#N): 0.46
photoluminescence quantum yield (in CO): 0.35
photoluminescence quantum yield (in ClCCl): 0.86

SMILES: CC1(C)C(/C=C/c2cc3ccc(O)cc3oc2=O)=[N+](CCCS(=O)(=O)[O-])c2ccc(S(=O)(=O)O)cc21
photoluminescence quantum yield (in CCO): 0.031
photoluminescence quantum yield (in CS(C)=O): 0.012
photoluminescence quantum yield (in O): 0.013

SMILES: CC1=C(C2=C(C)C(C)=[N+]3C2=Cc2cc(C)c(C)n2[B-]3(F)F)C2=Cc3cc(C)c(C)n3[B-](F)(F)[N+]2=C1C
photoluminescence quantum yield (in ClCCl): 0.05

SMILES: C(#Cc1ccc(-n2c3ccccc3c3ccccc32)cc1)c1ccc(-c2nc(-c3ccc(C#Cc4ccc(-n5c6ccccc6c6ccccc65)cc4)cc3)nc(-c3ccc(C#Cc4ccc(-n5c6ccccc6c6ccccc65)cc4)cc3)n2)cc1
photoluminescence quantum yield (in C1CCOC1): 0.69
photoluminescence quantum yield (in CC#N): 0.02
photoluminescence quantum yield (in CCCCCC): 0.94
photoluminescence quantum yield (in Cc1ccccc1): 1
photoluminescence quantum yield (in ClCCl): 0.67

SMILES: COc1ccc2c(c1)SCC1=C(c3ccccc3)C3=Nc4c(-c5ccccc5)c5c(n4[B-](F)(F)[N+]3=C12)-c1ccc(OC)cc1SC5
photoluminescence quantum yield (in ClC(Cl)Cl): 0.11

Further lines, results first:

photoluminescence quantum yield (in CCCCCC): 0.54
SMILES: CC(C)[Si](C#Cc1c2cc3ccccc3cc2c(C#C[Si](C(C)C)(C(C)C)C(C)C)c2nc3c(nc12)C1c2ccccc2C3c2ccccc21)(C(C)C)C(C)C

photoluminescence quantum yield (in C1COCCO1): 0.58
SMILES: CC(C)(C)c1cc(-c2ccc(-c3cc(C(C)(C)C)cc(C(C)(C)C)c3)cc2)cc(C(C)(C)C)c1

photoluminescence quantum yield (in ClCCl): 0.38
SMILES: CCCCCCN1C(=O)c2cccc3c(-c4ccc(-c5cc(-c6ccc(OC)cc6)n(-c6ccccc6)n5)s4)ccc(c23)C1=O

photoluminescence quantum yield (in ClC(Cl)Cl): 0.05
SMILES: CCCCCCCCCCOc1cc(OCCCCCCCCCC)cc(C2=C3C(/C=C/c4ccc(N(C)C)cc4)=C(C#Cc4ccc(C(C)(C)C)cc4)C(/C=C/c4ccc(N(C)C)cc4)=[N+]3[B-](F)(F)n3c(/C=C/c4ccc(N(C)C)cc4)c(C#Cc4ccc(C(C)(C)C)cc4)c(/C=C/c4ccc(N(C)C)cc4)c32)c1

photoluminescence quantum yield (in CN(C)C=O): 0.076
SMILES: Cc1ccc2nc(-c3cccc4nc(C)[nH]c(=O)c34)oc2c1

photoluminescence quantum yield (in ClC(Cl)Cl): 0.16
SMILES: CCCCC1(c2ccccc2)Nc2c(-c3ccc(N(C)C)cc3)ccc(-c3ccc(N(C)C)cc3)c2N=C1c1ccccc1 (configuration not stated)

photoluminescence quantum yield (in CC#N): 0.65
photoluminescence quantum yield (in CCCCCC): 0.73
photoluminescence quantum yield (in CCOC(C)=O): 0.59
photoluminescence quantum yield (in CO): 0.59
photoluminescence quantum yield (in ClCCl): 0.61
SMILES: CCc1c(C)c2n(c1C)[B-](F)(F)[N+]1=C(NCc3ccc(OC)cc3)C=CC1=C2C

photoluminescence quantum yield (in C1CCOC1): 0.2
photoluminescence quantum yield (in CS(C)=O): 0.17
photoluminescence quantum yield (in ClCCl): 0.19
SMILES: COc1cc(OC)cc(C2=C3C(C)=C(I)C(C)=[N+]3[B-](F)(F)n3c(/C=C/c4c[nH]c5ccccc45)c(I)c(C)c32)c1

photoluminescence quantum yield (in ClC(Cl)Cl): 0.06
SMILES: F[B-]1(F)n2c(c(-c3ccccc3)c3c2C2=Cc4ccccc4OC2CC3)C=C2C(c3ccccc3)=C3CCC4Oc5ccccc5C=C4C3=[N+]21 (configuration not stated)
